Test results published in patent publication US10668174B2, “Organ protection in PSMA-targeted radionuclide therapy of prostate cancer” (Molecular Insight Pharmaceuticals, Inc., priority 2014, dated 2020).
Where two headings read alike, the source gives them in different places.

Assays:
[1] = doses of up to 750 mg (~10 mg/kg), 25 healthy subjects, mean body weight 71 kg; cited from earlier work
[2] = PET-based dosimetry; cited from earlier work
[3] = test system: LNCaP xenografts
Description: Blood and tissues were collected 18 hours after intravenous injection of ^125I-MIP-1095 (2 hours after displacing agent injections). Gamma-counter readouts were obtained for each sample and expressed as percent injected dose per gram of tissue using gamma-counter readout of the dosing solution as a reference.
The dosing solution was prepared fresh the day of administration.
Cold MIP-1095 was stored protected from light at −80° C. until use. The compound was formulated in a vehicle of sterile saline. For dosing of the 0.50 mg/kg group, the cold MIP-1095 was placed into a sterile vial and the appropriate amount of saline was added and mixed well by vortexing to form a clear solution with a pH value of 6.96. Dosing solutions for the 0.15 mg/kg and 0.05 mg/kg groups were prepared by direct (not serial) dilution of the dosing solution from the 0.5 mg/kg group with complete vehicle. The dosing solutions were prepared fresh the day of administration.
For dosing, the stock solution (colorless) was thawed in a 37° C. water bath and diluted 1:1 with sterile saline for a fixed 0.1 mCi/ml solution for dosing.
The pre-implantation cell viability was 97%. […] The cell suspension was maintained on wet ice during implantation. Following implantation, an aliquot of the remaining cells was diluted with a trypan blue solution and counted to determine the post-implantation cell viability (96%).
Test animals were implanted subcutaneously, high in the axilla (just under the fore limb) on Day 0 with 5.0E+06 cells in 0.2 ml of 50% serum-free medium:50% Matrigel® using a 27-gauge needle and syringe.
All mice were sorted into study groups based on caliper measurement estimation of tumor burden. The mice were distributed to ensure that the mean tumor burden for all groups was within 10% of the overall mean tumor burden for the study population. Treatment began on Day 25. Mice were administered test agent via intravenous injections. The mice were administered a fixed volume injection of 100 μl (approximately 4 ml/kg) via the tail vein, using a 28-gauge needle and insulin syringe. A fresh needle and syringe was used for each mouse.
Group 1—^125I-MIP-1095+Saline, 0.4 mCi/kg (0.005 mg/kg)+100 μl fixed volume, IV+IV, “Control”; test article at 0 hours, saline 16 hours post test article.

[4] = test system: LNCaP
Description: BALB/c nude mice were implanted with 5×10^6 LNCaP cells (BD Biosciences) suspended in Matrigel (BD Biosciences) behind the left shoulder. The mice were used for our study after 8-12 weeks, when the tumors reached approximately 1.5 cm in diameter.
MIP-1404 was evaluated after labeling with ^99mTc in LNCaP bearing BALB/c nude mice. […] Quantification was done with kidney regions of interest (ROI) arising counts per minute (cpm) which were then converted to percentage-of-baseline values.
During imaging, mice were anesthetized using 1% isofluorane gas in oxygen flowing at 0.6 L/min. Serial planar scans were done with a Gamma Imager-sct (biospace labs, Paris, France). Quantification of tumor and kidney uptake was done by determining the counts per minute (cpm) in the target region by ROI-techniques. […] PET scans were done with a dedicated small animal PET scanner (Siemens, Iveon) and quantification was done by VOI-techniques and reported as standardized uptake values (SUV).

[5] = test system: LNCaP tumors; test: Example 1: planar scintigraphy of 125I-MIP-1095, PMPA injected 16 hours later; type: in vivo, BALB/c nude mice
Description: Mice bearing LNCaP tumors of 1.5 cm diameter were injected via the tail vein with 37 MBq of ^125I-MIP-1095 in 100 μl at a specific activity of >1,000 mCi/[…]. Mice were imaged at a baseline time of 16 hours post injection giving enough time for tracer clearance from the blood stream and kidney calices.

[6] = Example 3: serial 68Ga-MIP-1558 PET of the salivary region with saline or PMPA; type: in vivo; details: rats, PMPA 10 mg/kg
Description: (§1) MIP-1558 was evaluated after labeling with ^68Ga and imaging in an animal PET. […] Both tumor and kidney uptake was determined in a volume of interest (VOI).

[7] = test system: LNCaP tumor; test: Example 3: 68Ga-MIP-1558 animal PET, PMPA after 1 hour baseline scan; type: in vivo, BALB/c nude mice; details: for kidney uptake SUVmax of 68Ga-MIP1558: PMPA 50 mg/kg; for mean tumor uptake SUVmax of 68Ga-MIP1558: after PMPA 50 mg/kg
Description: as §1

[8] = test system: PSMA; details: simultaneous coinjection of 50 mg/kg PMPA; cited from earlier work
[9] = group 2, PMPA 0.5 mg/kg IV 16 hours post tracer
[10] = groups 3, 4 and 5, 0.05, 0.15 and 0.5 mg/kg

O=C(O)CCC(CCCS)C(=O)O (stereo not drawn) [2-MPPA, 2-(3-mercaptopropyl)pentanedioic acid]
safety and tolerability [1]: safe and generally well tolerated

O=C(O)CC[C@H](NC(=O)N[C@@H](CCCCNC(=O)Nc1ccc([123I])cc1)C(=O)O)C(=O)O [124I-MIP1095]
off-target radiation dose, kidneys [2]: 1.4 mSv/MBq
off-target radiation dose, liver [2]: 1.7 mSv/MBq
off-target radiation dose, salivary glands [2]: 3.8 mSv/MBq
radiation dose, red marrow [2]: 0.37 mSv/MBq

O=C(O)CC[C@H](NC(=O)N[C@@H](CCCCNC(=O)Nc1ccc([123I])cc1)C(=O)O)C(=O)O [125I-MIP-1095]
exposure in all other tissues and organs (including salivary glands) ([3]; male, Taconic Nude (CrTac:NCr-Foxn1nu), mouse, in vivo, 18 h): less than 1 % of ID/g
exposure in LNCaP tumors relative to other tissues ([3]; mouse, in vivo, iv): highest exposure

O=C(O)CC[C@H](NC(=O)N[C@@H](CCC(=O)N[C@@H](CCCCN(Cc1nccn1CC(=O)N(CC(=O)O)CC(=O)O)Cc1nccn1CC(=O)N(CC(=O)O)CC(=O)O)C(=O)O)C(=O)O)C(=O)O [MIP-1404]
washout from the kidneys without intervention ([4]; mouse, in vivo): fast washout

O=C(O)CCC(CP(=O)(O)O)C(=O)O (stereo not drawn) [PMPA, 2-(phosphonomethyl)pentanedioic acid]
difference in MIP-1404 tumor uptake vs controls ([4]; PMPA 50 mg/kg): not significant
washout of MIP-1404 from kidney vs controls ([4]; PMPA 50 mg/kg after baseline scan, at 2 and 4 hours): significantly (p<0.01) enhanced
residual tumor uptake of 125I-MIP-1095, % of 16 hour baseline ([5]; 2 hours after PMPA 0.2 mg/kg): 98%
residual tumor uptake of 125I-MIP-1095, % of 16 hour baseline ([5]; 2 hours after PMPA 1 mg/kg): 93%
residual tumor uptake of 125I-MIP-1095, % of 16 hour baseline ([5]; 2 hours after PMPA 10 mg/kg): 77%
residual tumor uptake of 125I-MIP-1095, % of 16 hour baseline ([5]; 2 hours after PMPA 50 mg/kg): 75%
decrease in tumor uptake ([5]; PMPA 0.2 mg/kg): < 5%
renal displacement of tracer ([5]; PMPA 0.2 mg/kg (lower dose)): only sub-totally displaced
displacement of 125I-MIP-1095 from the kidneys ([5]; PMPA 0.2 mg/kg, 16 hours after tracer): high significant (p<0.01) displacement
effect on tumor uptake ([5]; PMPA 1.0 mg/kg): < 10%
renal displacement of tracer ([5]; PMPA 1.0 mg/kg): near total renal displacement
kidney washout of 125I-MIP-1095 vs 0.2 mg/kg dose ([5]; PMPA 1 mg/kg, p<0.01): even higher kidney washout
displacement of renal activity of 125I-MIP-1095 ([5]; PMPA 16 hours after MIP-1095, all PMPA doses (0.2-50 mg/kg)): rapid and quantitative relevant displacement
kidney-protective effect vs 1 mg/kg ([5]; PMPA doses greater than 1 mg/kg (10, 50 mg/kg)): did not improve the kidney-protective effect
residual kidney uptake of MIP-1404, % of baseline (PMPA 1 mg/kg, 2 hours): 13%
residual kidney uptake of MIP-1404, % of baseline (PMPA 1 mg/kg, 4 hours): 9%
residual kidney uptake of MIP-1404, % of baseline (PMPA 10 mg/kg, 2 hours): 15%
residual kidney uptake of MIP-1404, % of baseline (PMPA 10 mg/kg, 4 hours): 10%
residual kidney uptake of MIP-1404, % of baseline (PMPA 50 mg/kg, 2 hours): 11%
residual kidney uptake of MIP-1404, % of baseline (PMPA 50 mg/kg, 4 hours): 7%
exposure of 125I-MIP-1095 in LNCaP tumors and all other organs and tissues [3, 9]: little changed
exposure of 125I-MIP-1095 in the kidneys [3, 9]: greatly reduced
change of salivary region uptake due to the PMPA intervention [6]: there does not appear to be a measurable change
salivary region SUVmax of 68Ga-MIP-1558, mean ([6]; 1 hour post injection): 0.82
salivary region SUVmax of 68Ga-MIP-1558, mean ([6]; 3 hours post injection): 0.23
kidney uptake SUVmax of 68Ga-MIP1558 ([7]; 2 hours post injection): 1.87
kidney uptake SUVmax of 68Ga-MIP1558 ([7]; 3 hours post injection): 1.77
mean tumor uptake SUVmax of 68Ga-MIP1558 ([7]; 2 hours post injection): 0.40
mean tumor uptake SUVmax of 68Ga-MIP1558 ([7]; 3 hours post injection): 0.39
blocking of radiolabeled MIP-1095 binding sites in tumor and kidneys [8]: complete blocking

O=C(O)CC[C@H](NC(=O)N[C@@H](CCCCNC(=O)Nc1ccc(I)cc1)C(=O)O)C(=O)O [cold MIP-1095]
exposure in other organs ([3]; group 4 (0.15 mg/kg)): little changed
reduction of LNCaP tumors exposure compared to negative control ([3]; group 4 (0.15 mg/kg)): 1.2 fold
reduction of kidney exposure compared to negative control ([3]; group 4 (0.15 mg/kg)): 5 fold
125I-MIP-1095 kidney exposure [3, 10]: dose-dependently reduced
LNCaP tumors exposure [3, 10]: dose-dependent decrease
liver, stomach, large and small intestines exposure [3, 10]: dose-dependent increase
reduction in kidney exposure compared with positive control ([3]; highest dose (0.5 mg/kg)): equivalent to the one observed for positive control
